Measurements as given in US9101547B2, “Enteric-coated capsule containing cationic nanoparticles for oral insulin delivery” (NANO AND ADVANCED MATERIALS INSTITUTE LIMITED, priority 2011, dated 2015).

Test system: diabetic rats
Test: In vivo study after administration in diabetic rats (blood glucose level-time profiles)
Description: The effect of insulin-loaded nanoparticles on the blood glucose levels is shown by comparing with that of the S.C. injection of insulin. […] SC injection of the insulin solution produces a sharp decrease in blood glucose level (90% in 2 h), which gradually returns to the basal level at 10 h, whereas the hypoglycemia effect is less significant after oral administration of the enteric-coated capsules which produces a slower but prolonged reduction in blood glucose level. The blood glucose level of the diabetic rats increases slightly during the first 4 hours of the experiment, possibly due to physical stress during handling and blood sampling. The hypoglycemic effect and the pharmacological availability (PA) of the enteric-coated capsule, determined by the dose-corrected AAC0-24h over 24 h relative to SC free-form insulin, as noted in Table 4, are 32.9% and 9.2%, respectively.

insulin [Insulin free-form (SC)]
hypoglycemic effect (FIG. 4): significant hypoglycemic effect | time at which blood glucose returns to the basal level (SC injection): 10 h | decrease in blood glucose level (SC injection, in 2 h): 90% | PA (pharmacological availability) (dose-corrected AAC0-24h relative to SC free-form insulin): 100% | Cmin = minimum relative basal glucose concentration in the blood (mean ± SD, n = 3 per group): 11.72 ± 1.1% | AAC0-24 h (n = 3 per group): 1008 % h | Tmax = time at minimum relative basal glucose concentration in the blood (n = 3 per group): 2 h | Hypoglycemic Effect (over 24 h, n = 3 per group): 35.2%
